The record followed here is patent US8445689B2, “Pesticides” (Dow AgroSciences, LLC., priority 2008, dated 2013).

For the first assay, the system named is Green Peach Aphid (Myzus persicae). Kind of assay: Insecticidal test for green peach aphid in foliar spray assay on cabbage. It counts as in vivo. Particulars: 72 h, 200 ppm foliar spray on cabbage seedlings, graded after 3 d, corrected % control (Abbott), read-out: Rating against green peach aphid on cabbage (foliar spray). As to the method:
Compounds 1-67 were tested against green peach aphid using procedures described hereinafter.
Insecticidal Test for Green Peach Aphid (Myzus persicae) in Foliar Spray Assay
Cabbage seedlings grown in 3-inch pots, with 2-3 small (3-5 cm) true leaves, were used as test substrate. The seedlings were infested with 20-50 green peach aphids (wingless adult and nymph) 1-2 d prior to chemical application. Four seedlings were used for each treatment. Compounds (2 mg) were dissolved in 2 mL of acetone-methanol (1:1) solvent, forming stock solutions of 1000 ppm. The stock solutions were diluted 5× with 0.025% Tween 20 in H2O to obtain a solution at 200 ppm. A hand-held Devilbiss aspirator sprayer was used for spraying a solution to both sides of cabbage leaves until runoff. Reference plants (solvent check) were sprayed with the diluent only. Treated plants were held in a holding room for 3 d at approximately 23° C. and 40% RH prior to grading. Evaluation was conducted by counting the number of live aphids per plant under a microscope. Insecticidal activity was measured by using Abbott's correction formula: Corrected % Control=100*(X−Y)/X • where X=No. of live aphids on solvent check plants • Y=No. of live aphids on treated plants
On to `CC(c1ccc(C(F)(F)F)nc1)S(C)(=O)=NC(=O)NC(=O)CCl` (stereo not drawn) [Compound 3, N-(chloroacetyl)-N′-(methyl(oxido){1-[6-(trifluoromethyl)pyridin-3-yl]ethyl}-λ^4-sulfanylidene)urea], for which the pest or weed control at 200 ppm was 80 to 100%.

Take `CC(c1ccc(C(F)(F)F)nc1)S(C)(=O)=NC(=S)Nc1cccnc1` (stereo not drawn) [Compound 4, N-(methyl(oxido){1-[6-(trifluoromethyl)pyridin-3-yl]ethyl}-λ^4-sulfanylidene)-N′-pyridin-3-ylthiourea]: the pest or weed control at 200 ppm was < 80%.

For the compound `CCNC(=S)N=S(C)(=O)C(C)c1ccc(C(F)(F)F)nc1` (stereo not drawn) [Compound 6], the pest or weed control at 200 ppm was 80 to 100%.

Consider `CC(c1ccc(C(F)(F)F)nc1)S(C)(=O)=NC(=S)NCc1ccco1` (stereo not drawn) [Compound 8], for which the pest or weed control at 200 ppm was 80 to 100%.

For the compound `COC(=O)C(C)NC(=S)N=S(C)(=O)C(C)c1ccc(C(F)(F)F)nc1` (stereo not drawn) [Compound 10], the pest or weed control at 200 ppm is 80 to 100%.

As for `CC(c1ccc(C(F)(F)F)nc1)S(C)(=O)=NC(=S)NCCN1CCOCC1` (stereo not drawn) [Compound 11], the pest or weed control at 200 ppm is 80 to 100%.

Take `CCOC(=O)CNC(=S)N=S(C)(=O)C(C)c1ccc(C(F)(F)F)nc1` (stereo not drawn) [Compound 12]: the pest or weed control at 200 ppm was in the range of 80 to 100%.

For `CNC(=S)N=S(C)(=O)C(C)c1ccc(C(F)(F)F)nc1` (stereo not drawn) [Compound 13], the pest or weed control at 200 ppm was 80 to 100%.

As to `CC(c1ccc(C(F)(F)F)nc1)S(C)(=O)=NC(=S)NC(=O)c1ccc(Cl)cc1` (stereo not drawn) [Compound 16], the pest or weed control at 200 ppm fell in the range of 80 to 100%.

For `COc1ccc(C(=O)NC(=S)N=S(C)(=O)C(C)c2ccc(C(F)(F)F)nc2)cc1` (stereo not drawn) [Compound 17], the pest or weed control at 200 ppm lay within 80 to 100%.

As to `CC(c1ccc(C(F)(F)F)nc1)S(C)(=O)=NC(=S)NC(=O)c1ccco1` (stereo not drawn) [Compound 18], the pest or weed control at 200 ppm fell in the range of 80 to 100%.

For the compound `CC(c1ccc(C(F)(F)F)nc1)S(C)(=O)=NC(=S)N(C)C` (stereo not drawn) [Compound 23, N,N-dimethyl-N′-(methyl(oxido){1-[6-(trifluoromethyl)pyridin-3-yl]ethyl}-λ^4-sulfanylidene)thiourea], the pest or weed control at 200 ppm was 80 to 100%.

As for `CCN(CC)C(=S)N=S(C)(=O)C(C)c1ccc(C(F)(F)F)nc1` (stereo not drawn) [Compound 24], the pest or weed control at 200 ppm lay within 80 to 100%.

Regarding `CC(c1ccc(C(F)(F)F)nc1)S(C)(=O)=NC(=S)N1CCCC1` (stereo not drawn) [Compound 25], the pest or weed control at 200 ppm lay within 80 to 100%.

`CC(c1ccc(C(F)(F)F)nc1)S(C)(=O)=NC(=S)N1CCCCC1` (stereo not drawn) [Compound 26]: the pest or weed control at 200 ppm is 80 to 100%.

Turning to `CC(c1ccc(C(F)(F)F)nc1)S(C)(=O)=NC(=S)N1CCOCC1` (stereo not drawn) [Compound 27], the pest or weed control at 200 ppm lay within 80 to 100%.

On to `CS(=O)(Cc1ccc(C(F)(F)F)nc1)=NC(N)=S` (stereo not drawn) [Compound 29, N-(methyl(oxido){[6-(trifluoromethyl)pyridin-3-yl]methyl}-λ^4-sulfanylidene)thiourea], for which the pest or weed control at 200 ppm fell in the range of 80 to 100%.

Take `CS(=O)(=N/C(N)=N/O)C(CC1CC1)c1ccc(Cl)nc1` (stereo not drawn) [Compound 40, N-[[1-(6-chloropyridin-3-yl)-2-cyclopropylethyl](methyl)oxido-λ^4-sulfanylidene]-N″-hydroxyguanidine]: the pest or weed control at 200 ppm was < 80%.

Regarding `CS(=O)(=N/C(N)=N/O)C(C/C=C/Cl)c1ccc(Cl)nc1` (stereo not drawn) [Compound 41, N-[[(3E)-4-Chloro-1-(6-chloropyridin-3-yl)but-3-enyl](methyl)oxido-λ^4-sulfanylidene]-N″-hydroxyguanidine], the pest or weed control at 200 ppm is < 80%.

Regarding `CS(=O)(Cc1ccc(C(F)(F)F)nc1)=N/C(N)=N/O` (stereo not drawn) [Compound 42, N′-hydroxy-N-(methyl(oxido){[6-(trifluoromethyl)pyridin-3-yl]methyl}-λ^4-sulfanylidene)guanidine], the pest or weed control at 200 ppm lay within 80 to 100%.

For `CS(=O)(=N/C(N)=N/O)C(CC1CC1)c1ccc(C(F)(F)F)nc1` (stereo not drawn) [Compound 43, N-[{2-cyclopropyl-1-[6-(trifluoromethyl)pyridin-3-yl]ethyl}(methyl)oxido-λ^4-sulfanylidene]-N″-hydroxyguanidine], the pest or weed control at 200 ppm was 80 to 100%.

`CC(=O)O/N=C(\N)N=S(C)(=O)C(C)c1ccc(C(F)(F)F)nc1` (stereo not drawn) [Compound 44, N″-(acetyloxy)-N-(methyl(oxido){1-[6-(trifluoromethyl)pyridin-3-yl]ethyl}-λ^4-sulfanylidene)guanidine]: the pest or weed control at 200 ppm fell in the range of 80 to 100%.

For the compound `CC(c1ccc(C(F)(F)F)nc1)S(C)(=O)=NC(=N)N` (stereo not drawn) [Compound 45, N-(methyl(oxido){1-[6-(trifluoromethyl)pyridin-3-yl]ethyl}-λ^4-sulfanylidene)guanidine], the pest or weed control at 200 ppm is < 80%.

As to `CC(c1ccc(C(F)(F)F)nc1)S(C)(=O)=N/C(N)=N/OCc1ccc(Cl)cc1` (stereo not drawn) [Compound 46, N′-[(4-chlorobenzyl)oxy]-N-(methyl(oxido) {1-[6-(trifluoromethyl)pyridin-3-yl]ethyl}-λ^4-sulfanylidene)guanidine], the pest or weed control at 200 ppm was in the range of 80 to 100%.

On to `COc1ccc(CO/N=C(\N)N=S(C)(=O)C(C)c2ccc(C(F)(F)F)nc2)cc1` (stereo not drawn) [Compound 47], for which the pest or weed control at 200 ppm fell in the range of 80 to 100%.

For the compound `CO/N=C(\N)N=S(C)(=O)C(C)c1ccc(C(F)(F)F)nc1` (stereo not drawn) [Compound 48], the pest or weed control at 200 ppm was 80 to 100%.

With `CCO/N=C(\N)N=S(C)(=O)C(C)c1ccc(C(F)(F)F)nc1` (stereo not drawn) [Compound 49], the pest or weed control at 200 ppm is 80 to 100%.

For `CC(C)O/N=C(\N)N=S(C)(=O)C(C)c1ccc(C(F)(F)F)nc1` (stereo not drawn) [Compound 50], the pest or weed control at 200 ppm lay in the range of 80 to 100%.

`CC(c1ccc(C(F)(F)F)nc1)S(C)(=O)=N/C(N)=N/OCC1CC1` (stereo not drawn) [Compound 51]: the pest or weed control at 200 ppm is 80 to 100%.

With `CC(c1ccc(C(F)(F)F)nc1)S(C)(=O)=N/C(N)=N/OCC1CC1(F)F` (stereo not drawn) [Compound 52], the pest or weed control at 200 ppm was in the range of 80 to 100%.

`C=CCO/N=C(\N)N=S(C)(=O)C(C)c1ccc(C(F)(F)F)nc1` (stereo not drawn) [Compound 53]: the pest or weed control at 200 ppm was in the range of 80 to 100%.

With `CC(c1ccc(C(F)(F)F)nc1)S(C)(=O)=N/C(N)=N/OCCCF` (stereo not drawn) [Compound 54], the pest or weed control at 200 ppm lay within 80 to 100%.

With `CC(c1ccc(C(F)(F)F)nc1)S(C)(=O)=N/C(N)=N/OCCCCF` (stereo not drawn) [Compound 55], the pest or weed control at 200 ppm was 80 to 100%.

As to `CC(c1ccc(C(F)(F)F)nc1)S(C)(=O)=N/C(N)=N/OCCC=C(F)F` (stereo not drawn) [Compound 56], the pest or weed control at 200 ppm is 80 to 100%.

For the compound `CC(c1ccc(C(F)(F)F)nc1)S(C)(=O)=N/C(=N/OCc1ccc(Cl)cc1)NCc1ccc(Cl)cc1` (stereo not drawn) [Compound 57], the pest or weed control at 200 ppm was < 80%.

As for `COc1ccc(CN/C(N=S(C)(=O)C(C)c2ccc(C(F)(F)F)nc2)=N\OCc2ccc(OC)cc2)cc1` (stereo not drawn) [Compound 58], the pest or weed control at 200 ppm lay in the range of 80 to 100%.

For `CC(c1ccc(C(F)(F)F)nc1)S(C)(=O)=N/C(N)=N/OCCF` (stereo not drawn) [Compound 59], the pest or weed control at 200 ppm lay within 80 to 100%.

Staying with this assay, now noted: foliar, 72 h, read-out: Rating against green peach aphid on cabbage (foliar spray).
With `CCOC(=O)NC(=S)N=S(C)(=O)C(C)c1ccc(C(F)(F)F)nc1` (stereo not drawn) [Compound 19], the pest or weed control at 200 ppm was 80 to 100%.

On to `Cc1ccc(C(C)S(C)(=O)=NC(=S)NC(=O)OCC2c3ccccc3-c3ccccc32)cn1` (stereo not drawn) [Compound 32, 9H-fluoren-9-ylmethyl({methyl[1-(6-methylpyridin-3-yl)ethyl]oxido-λ^4-sulfanylidene}amino)carbonothioylcarbamate], for which the pest or weed control at 200 ppm was < 80%.
